Results: article PMC8158844 (ACS Omega, 2021)
Where “and” joins values, the source holds several entries; their conditions need not be identical. Equal entries are not always repeated.

How the values were obtained:
FAAH = target: T1, FAAH (Rattus norvegicus, UniProt P97612); assay: Inhibition of fatty acid amide hydrolase; type: biochemical
T1 sequence (P97612 1-579): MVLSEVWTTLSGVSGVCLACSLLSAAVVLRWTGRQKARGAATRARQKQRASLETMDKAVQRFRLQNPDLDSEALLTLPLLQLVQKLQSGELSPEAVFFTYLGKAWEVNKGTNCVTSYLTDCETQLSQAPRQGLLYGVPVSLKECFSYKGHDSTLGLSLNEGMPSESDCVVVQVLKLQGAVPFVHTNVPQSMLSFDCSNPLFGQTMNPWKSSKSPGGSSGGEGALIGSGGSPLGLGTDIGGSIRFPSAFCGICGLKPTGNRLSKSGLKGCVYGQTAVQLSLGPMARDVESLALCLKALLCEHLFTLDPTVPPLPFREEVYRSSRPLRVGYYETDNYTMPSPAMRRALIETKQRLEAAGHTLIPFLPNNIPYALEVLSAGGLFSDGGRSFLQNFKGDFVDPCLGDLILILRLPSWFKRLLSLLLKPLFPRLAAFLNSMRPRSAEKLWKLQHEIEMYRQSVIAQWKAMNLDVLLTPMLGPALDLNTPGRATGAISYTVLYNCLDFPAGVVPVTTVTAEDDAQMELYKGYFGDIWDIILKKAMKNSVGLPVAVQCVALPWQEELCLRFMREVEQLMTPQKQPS

BuChE = BuChE (Equus caballus, UniProt P81908); assay: Inhibition of butyrylcholinesterase; type: biochemical, horse; details: read-out: BuChE inhibition at 10 μM
Sequence of BuChE (P81908 whole entry): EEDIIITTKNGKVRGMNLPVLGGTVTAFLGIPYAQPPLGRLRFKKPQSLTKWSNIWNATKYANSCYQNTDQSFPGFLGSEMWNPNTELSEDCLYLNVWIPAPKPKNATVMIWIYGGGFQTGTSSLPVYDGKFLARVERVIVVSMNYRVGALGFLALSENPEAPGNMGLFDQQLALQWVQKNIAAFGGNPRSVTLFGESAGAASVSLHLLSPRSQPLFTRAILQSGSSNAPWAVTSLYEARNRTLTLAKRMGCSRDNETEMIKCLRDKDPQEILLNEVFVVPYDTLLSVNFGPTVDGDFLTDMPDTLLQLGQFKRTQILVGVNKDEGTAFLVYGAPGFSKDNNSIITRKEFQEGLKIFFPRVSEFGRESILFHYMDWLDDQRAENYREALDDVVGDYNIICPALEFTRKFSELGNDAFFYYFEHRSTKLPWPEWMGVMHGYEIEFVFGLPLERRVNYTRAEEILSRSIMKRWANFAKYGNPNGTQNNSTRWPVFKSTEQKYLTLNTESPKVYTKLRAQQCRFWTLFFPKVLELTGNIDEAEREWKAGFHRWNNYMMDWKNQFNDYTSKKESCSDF

[1] = Chemical stability in aqueous solution; type: physicochemical; details: PBS buffer pH 7.4 with 0.2% Triton X-100; 60 min, 37 °C
[2] = Metabolic stability in porcine blood plasma; type: in vitro ADME; details: Table 3; 30 min, 37 °C; n = 3 unless otherwise stated
[3] = Metabolic stability in porcine liver S9 fraction; type: in vitro ADME; details: 30 min; for stability porcine liver S9 fractions (percent of parent remaining): 37 °C, no NADPH added
porcine albumin [4] = target: T2, porcine albumin (Sus scrofa, UniProt P08835); assay: Stability in porcine albumin solution; type: in vitro ADME; details: porcine albumin 17.5 mg/mL in PBS; 30 min, 37 °C
T2 sequence (P08835 25-607): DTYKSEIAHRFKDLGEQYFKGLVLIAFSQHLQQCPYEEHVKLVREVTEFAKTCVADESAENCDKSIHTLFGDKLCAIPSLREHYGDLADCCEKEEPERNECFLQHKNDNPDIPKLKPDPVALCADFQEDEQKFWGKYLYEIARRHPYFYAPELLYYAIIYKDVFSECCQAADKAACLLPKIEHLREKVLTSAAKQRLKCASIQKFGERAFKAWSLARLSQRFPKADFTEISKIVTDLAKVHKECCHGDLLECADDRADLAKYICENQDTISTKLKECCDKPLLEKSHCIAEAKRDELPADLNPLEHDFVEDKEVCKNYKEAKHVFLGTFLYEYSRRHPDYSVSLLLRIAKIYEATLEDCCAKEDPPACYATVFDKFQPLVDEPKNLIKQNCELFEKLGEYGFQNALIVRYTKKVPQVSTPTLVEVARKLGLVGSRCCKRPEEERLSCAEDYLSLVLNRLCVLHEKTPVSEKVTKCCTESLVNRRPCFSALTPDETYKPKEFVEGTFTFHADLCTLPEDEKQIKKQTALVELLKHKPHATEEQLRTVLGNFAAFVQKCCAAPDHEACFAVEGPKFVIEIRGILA

porcine albumin [5] = target: T2, porcine albumin; assay: Reaction with porcine albumin investigated by MS; details: 60 min, 37 °C; molar ratio compound/albumin 4:1
human recombinant MAGL = target: T3, human recombinant MAGL (Homo sapiens, UniProt Q99685); assay: Inhibition of monoacylglycerol lipase; type: biochemical
T3 sequence (Q99685 1-303): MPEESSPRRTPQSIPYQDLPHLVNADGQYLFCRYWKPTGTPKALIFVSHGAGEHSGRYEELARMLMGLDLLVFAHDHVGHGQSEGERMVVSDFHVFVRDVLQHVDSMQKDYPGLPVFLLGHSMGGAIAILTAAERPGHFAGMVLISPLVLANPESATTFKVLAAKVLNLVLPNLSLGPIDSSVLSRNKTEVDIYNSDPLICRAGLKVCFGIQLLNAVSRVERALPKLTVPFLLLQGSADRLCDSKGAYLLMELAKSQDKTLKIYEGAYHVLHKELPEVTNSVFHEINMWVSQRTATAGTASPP

| SMILES | IC50 (FAAH) [nM] | decrease in FAAH inhibitory activity compared with compound 14 (FAAH; ratio of FAAH IC50 values) | inhibition at 10 µM (BuChE) [%] | stability in PBS buffer (percent of parent remaining) [1] [%] | stability porcine blood plasma (percent of parent remaining) [2] [%] | stability porcine liver S9 fractions (percent of parent remaining) [3] [%] | stability porcine albumin solution (percent of parent remaining) (porcine albumin [4]) | number of carbamate molecules bound to albumin in the most intense MS signal (porcine albumin [5]) | IC50 (human recombinant MAGL) [nM] | stability in the absence of BNNP (percent of parent remaining) ([3]; porcine liver homogenate) [%] | stability in the presence of BNNP (percent of parent remaining) ([3]; porcine liver homogenate, carboxylesterase 1 inhibitor BNPP 1 mM) [%] |
| --- | --- | --- | --- | --- | --- | --- | --- | --- | --- | --- | --- |
| O=C(O)Cc1ccccc1OC(=O)NCCCCCn1ccc2ccc(F)cc21 [Compound 43] | 4200 | more than 100 fold | 34 | >95 | 89 ± 1 | 82 ± 5 | 89 ± 3% |  |  |  |  |
| NC(=O)c1cccc(-c2cccc(OC(=O)NC3CCCCC3)c2)c1 [URB597 (1), reference compound] |  |  | 35 | >95 |  | 80 ± 4 | 95 ± 7% |  |  |  |  |
| Cc1ccncc1OC(=O)NCCCCCn1ccc2ccc(F)cc21 [Compound 46, 4-Methylpyridin-3-yl N-[5-(6-fluoroindol-1-yl)pentyl]carbamate] | 3 |  |  | 74 ± 4 | 8 ± 2 | 56 ± 8 | 68% and 68 ± 6% | dual | 150 | 56 ± 8 | 76 ± 5 |
| O=C(O)Cc1ccc(OC(=O)NCCCCCn2ccc3ccc(F)cc32)cc1 [Compound 39, 2-[4-({[5-(6-Fluoroindol-1-yl)pentyl]carbamoyl}oxy)phenyl]acetic Acid] | 14 |  | 38 | >95 | 88 ± 4 | 85 ± 3 | >95% |  |  |  |  |
| Cc1cncc(OC(=O)NCCCCCn2ccc3ccc(F)cc32)c1 [Compound 47] | 2 |  |  | 72 ± 4 | <5 | 57 ± 5 | 37% and 37 ± 4% | three | 150 |  |  |
